From US6610676B1, “Nitrate esters of corticoid compounds and pharmaceutical applications thereof” (Nicox S.A., priority 1996, dated 2003)
Marks after values point to notes of the source that are not given here.

Assays:
[1] = test system: male rats of Lewis strain; experiment: Antiarthritic activity, adjuvant arthritis induced by Mycobacterium butyricum; format: in vivo; settings: day 21, inhibition of arthritis score vs vehicle group
nitroxysynthetase = experiment: LPS-induced nitroxysynthetase activity in rat neutrophils and stomach; format: in vivo, rats; settings: 10 mg/kg i.p., LPS 5 mg/kg i.v., 4 h; compared to vehicle group (vehicle = 100)
[2] = test system: parietal bone from rat foetus; experiment: Bone toxicity, bone tissue grown in vitro; format: cell-based; settings: 10 nmol (table), 96 h incubation, compared to initial value
Method: Bone tissues (parietal bone from rat foetus) grown in vitro according to the method described by Doherty et al. (“The effect of glucocorticoids on osteoblast function. The effect of corticosterone on osteoblast, expression of beta-I integrins”, Journal of Bone and Joint Surgery, Series A77/3, 396-404, 1995) was used. […]
Ninety six hours later calcium content and bone dry weight were measured.

[3] = test system: conscious Long Evans rats; experiment: Cardiovascular parameters in conscious rats; format: in vivo; settings: 10 mg/kg s.c., 4 h after treatment; for BLOOD PRESSURE: compared to vehicle group (101 ± 2 mm Hg); for HEART RATE (%): compared to vehicle group (324 ± 7 beats per minute)
Method: The effect of the test products on some cardiovascular parameters was studied in conscious Long Evans rats (350 to 450 g) which were appropriately monitored, as described by Gardiner et al.: “Influence of dexamethasone on the regional haemodynamic responses to lipopolysaccharide in conscious rats: effect of the non-selective endothelin antagonist: SB 209670”, Br.J. Pharmacology 117, 49P, 1996. The animals were treated with the vehicle (physiologic saline solution, 0,9% sodium chloride, s.c.) subcutaneous hydrocortisone or HCN (10 mg/kg). Heart rate and blood pressure were recorded 4 hours after treatment.

Male Sprague-Dawley rats = experiment: Gastric tolerability (safety); format: in vivo; settings: 24 h, lesion scale 0 = absent to 4 = severe and numerous ulcers
Method: Male Sprague-Dawley rats fasted for 24 hours were treated with 5 to 10 mg/kg of intraperitoneal hydrocortisone or HCN.
Twenty-four hours later the animals were sacrified, the stomach was removed and tissue was grossly examined for the presence of lesions as described by Del Soldato et al.: “The influence of fasting and cimetidine on the relationship between ulcerogenic and anti-inflammatory properties of […]”, Br.J.Pharmacol. 67, 33-37, 1979. The degree of severity of the disease was evaluated according to common methods and expressed as arbitrary values.

Male Wistar rats = experiment: Angiostatic activity, rat sponge model, 133Xe clearance; format: in vivo; settings: for SPLEEN weight / THYMUS weight: 10 mg/kg s.c. day 1 to 13, day 14; for 133Xe clearance (%): 10 mg/kg s.c. day 1 to 13, measured at day 14, clearance for 6 minutes as % of initial value
mice of the Swiss strain = experiment: Acute toxicity study, single oral dose; format: in vivo; settings: single oral dose 50 mg/kg, 10 Swiss mice, 14 days observation
Text: The acute toxicity of the product from Example 1A was roughly evaluated by orally administering a single dose of substance to a group of 10 mice of the Swiss strain.
Death incidence and appearance of toxic symptoms were observed during a period of 14 days after the compound administration.

## C[C@]12CCC(=O)C=C1CC[C@@H]1[C@@H]2[C@@H](O)C[C@@]2(C)[C@H]1CC[C@]2(O)C(=O)CO [HYDROCORTISONE, hydrocortisone, reference compound]
[1]; 5 mg/kg i.p.
  ANTIARTHRITIC ACTIVITY (%): 40%
[1]; 10 mg/kg i.p.
  ANTIARTHRITIC ACTIVITY (%): 55%
nitroxysynthetase
  NITROXYSYNTHETASE ACTIVITY: 55* per cent
[2]
  Calcium Δ%: 70° %
  DRY TISSUE WEIGHT Δ%: 95° %
[3]
  BLOOD PRESSURE: 115* per-cent
  HEART RATE (%): 89* %
Male Sprague-Dawley rats; 5 mg/kg i.p.
  GASTRIC TOLERABILITY: 2.0 arbitrary values
Male Sprague-Dawley rats; 10 mg/kg i.p.
  GASTRIC TOLERABILITY: 3.5 arbitrary values
Male Wistar rats
  SPLEEN weight: 642 ± 32 mg
  THYMUS weight: 185 ± 17 mg
  133Xe clearance (%): 33%

## C[C@]12CCC(=O)C=C1CC[C@@H]1[C@@H]2[C@@H](O)C[C@@]2(C)[C@H]1CC[C@]2(O)C(=O)COC(=O)CCCO[N+](=O)[O-] [HCN, Hydrocortisone 4-Nitroxybutanoate]
[1]; 5 mg/kg i.p.
  ANTIARTHRITIC ACTIVITY (%): 45%
[1]; 10 mg/kg i.p.
  ANTIARTHRITIC ACTIVITY (%): 62%
nitroxysynthetase
  NITROXYSYNTHETASE ACTIVITY: 62* per cent
[2]
  Calcium Δ%: 287%
  DRY TISSUE WEIGHT Δ%: 149%
[3]
  BLOOD PRESSURE: 103 per-cent
  HEART RATE (%): 98%
Male Sprague-Dawley rats; 5 mg/kg i.p.
  GASTRIC TOLERABILITY: 0.5* arbitrary values
Male Sprague-Dawley rats; 10 mg/kg i.p.
  GASTRIC TOLERABILITY: 1.2* arbitrary values
Mice of the Swiss strain
  Acute toxicity (death incidence and toxic symptoms): no sign of apparent toxicity
Male Wistar rats
  SPLEEN weight: 673 ± 38 mg
  THYMUS weight: 297 ± 31 mg
  133Xe clearance (%): 22* %
